Read-outs that look alike come from different tables or passages of the source.
Legend:
Assay in all cases: HotSpot kinase profiling
Type in all cases: biochemical
[1] = molecular target: T1, MSSK1/STK23 (Homo sapiens, UniProt Q9UPE1)
T1 construct: purchased Reaction Biology Corp
Method in brief: (§1)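 Radio-isotope P81 filtration format. Substrate + required cofactors in reaction buffer, kinase added, 2 h RT. Stop, wash with 0.1% phosphoric acid, detect. % inhibition vs DMSO; mean of duplicates where repeated.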

[2] = molecular target: T2, IKKe/IKBKE (Homo sapiens, UniProt Q14164)
T2 construct: purchased Reaction Biology Corp
T2 sequence (Q14164 1-716): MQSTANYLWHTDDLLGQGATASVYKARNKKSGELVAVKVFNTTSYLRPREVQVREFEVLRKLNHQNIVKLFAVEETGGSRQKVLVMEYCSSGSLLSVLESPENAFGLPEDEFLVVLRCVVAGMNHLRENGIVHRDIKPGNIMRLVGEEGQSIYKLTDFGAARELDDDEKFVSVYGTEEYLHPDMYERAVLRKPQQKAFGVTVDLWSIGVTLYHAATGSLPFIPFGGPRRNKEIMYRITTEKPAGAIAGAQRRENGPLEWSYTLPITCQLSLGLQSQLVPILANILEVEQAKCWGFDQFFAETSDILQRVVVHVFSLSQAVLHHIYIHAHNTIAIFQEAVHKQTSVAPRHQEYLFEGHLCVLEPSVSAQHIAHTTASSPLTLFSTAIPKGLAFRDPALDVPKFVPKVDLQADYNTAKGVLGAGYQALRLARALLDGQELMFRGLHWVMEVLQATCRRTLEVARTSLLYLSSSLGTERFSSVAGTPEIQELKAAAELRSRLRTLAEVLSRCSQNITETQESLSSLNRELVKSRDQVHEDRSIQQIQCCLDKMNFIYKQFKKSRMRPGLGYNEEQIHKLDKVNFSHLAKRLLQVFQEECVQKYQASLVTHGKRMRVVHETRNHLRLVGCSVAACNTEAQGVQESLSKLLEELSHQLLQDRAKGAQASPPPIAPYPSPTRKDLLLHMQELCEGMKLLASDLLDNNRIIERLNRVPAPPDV
Method in brief: as §1

[3] = molecular target: T3, FGR (Homo sapiens, UniProt P09769)
T3 construct: purchased Reaction Biology Corp
Method in brief: as §1

[4] = molecular target: T4, ERK2/MAPK1 (Homo sapiens, UniProt P28482)
T4 construct: purchased Reaction Biology Corp
Method in brief: as §1

[5] = molecular target: T5, ULK2 (Homo sapiens, UniProt Q8IYT8)
T5 construct: purchased Reaction Biology Corp
T5 sequence (Q8IYT8 1-1036): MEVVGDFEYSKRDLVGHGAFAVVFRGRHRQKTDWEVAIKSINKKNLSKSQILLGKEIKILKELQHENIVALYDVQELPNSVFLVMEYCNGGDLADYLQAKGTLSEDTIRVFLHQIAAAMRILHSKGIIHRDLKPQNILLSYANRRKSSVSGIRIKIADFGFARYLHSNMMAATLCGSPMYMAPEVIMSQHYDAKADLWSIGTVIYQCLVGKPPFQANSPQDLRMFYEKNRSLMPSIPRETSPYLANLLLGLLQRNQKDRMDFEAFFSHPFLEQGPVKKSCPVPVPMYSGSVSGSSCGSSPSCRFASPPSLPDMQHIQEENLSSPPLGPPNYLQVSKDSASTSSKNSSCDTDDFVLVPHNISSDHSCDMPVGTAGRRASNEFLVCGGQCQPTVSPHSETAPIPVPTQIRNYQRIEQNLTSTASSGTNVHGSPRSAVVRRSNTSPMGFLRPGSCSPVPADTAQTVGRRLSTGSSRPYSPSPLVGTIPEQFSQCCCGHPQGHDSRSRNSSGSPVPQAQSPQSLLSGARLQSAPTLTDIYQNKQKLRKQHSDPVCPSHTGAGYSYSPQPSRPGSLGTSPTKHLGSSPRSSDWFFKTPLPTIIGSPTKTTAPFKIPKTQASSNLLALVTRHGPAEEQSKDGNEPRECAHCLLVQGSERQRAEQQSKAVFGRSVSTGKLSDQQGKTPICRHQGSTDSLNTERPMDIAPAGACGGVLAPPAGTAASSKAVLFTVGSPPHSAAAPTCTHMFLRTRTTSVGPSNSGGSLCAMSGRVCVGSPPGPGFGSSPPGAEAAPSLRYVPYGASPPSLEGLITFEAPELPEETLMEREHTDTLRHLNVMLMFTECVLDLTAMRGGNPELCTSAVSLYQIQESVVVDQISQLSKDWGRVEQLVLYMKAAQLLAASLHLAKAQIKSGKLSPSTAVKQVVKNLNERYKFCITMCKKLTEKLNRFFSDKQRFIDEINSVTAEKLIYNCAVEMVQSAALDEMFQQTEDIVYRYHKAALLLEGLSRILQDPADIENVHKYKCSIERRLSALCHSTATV
Method in brief: as §1

[6] = molecular target: T6, CK1d (Homo sapiens, UniProt P48730)
T6 construct: purchased Reaction Biology Corp
Method in brief: as §1

[7] = molecular target: T7, KDR/VEGFR2 (Homo sapiens, UniProt P35968)
T7 construct: purchased Reaction Biology Corp
Method in brief: as §1

[8] = molecular target: T8, KHS/MAP4K5 (Homo sapiens, UniProt Q9Y4K4)
T8 construct: purchased Reaction Biology Corp
Method in brief: as §1

[9] = molecular target: T9, CDK9/cyclin T1 (Homo sapiens, UniProt P50750)
T9 construct: purchased Reaction Biology Corp
Method in brief: as §1

[10] = read-out: % Enzyme Activity (relative to DMSO controls) Run 1
[11] = read-out: % Enzyme Activity (relative to DMSO controls) Run 2

T6 sequence (P48730 whole entry): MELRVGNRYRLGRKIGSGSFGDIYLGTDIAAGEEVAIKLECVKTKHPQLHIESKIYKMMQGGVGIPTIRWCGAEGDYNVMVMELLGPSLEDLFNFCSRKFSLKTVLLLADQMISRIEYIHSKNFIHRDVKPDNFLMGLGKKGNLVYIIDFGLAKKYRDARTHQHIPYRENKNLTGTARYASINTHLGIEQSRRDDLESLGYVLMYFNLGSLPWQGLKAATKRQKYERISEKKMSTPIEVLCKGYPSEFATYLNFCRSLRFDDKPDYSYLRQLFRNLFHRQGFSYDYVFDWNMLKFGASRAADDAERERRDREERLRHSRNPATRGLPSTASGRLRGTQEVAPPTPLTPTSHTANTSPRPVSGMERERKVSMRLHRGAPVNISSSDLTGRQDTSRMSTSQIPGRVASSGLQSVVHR
T4 sequence (P28482 whole entry): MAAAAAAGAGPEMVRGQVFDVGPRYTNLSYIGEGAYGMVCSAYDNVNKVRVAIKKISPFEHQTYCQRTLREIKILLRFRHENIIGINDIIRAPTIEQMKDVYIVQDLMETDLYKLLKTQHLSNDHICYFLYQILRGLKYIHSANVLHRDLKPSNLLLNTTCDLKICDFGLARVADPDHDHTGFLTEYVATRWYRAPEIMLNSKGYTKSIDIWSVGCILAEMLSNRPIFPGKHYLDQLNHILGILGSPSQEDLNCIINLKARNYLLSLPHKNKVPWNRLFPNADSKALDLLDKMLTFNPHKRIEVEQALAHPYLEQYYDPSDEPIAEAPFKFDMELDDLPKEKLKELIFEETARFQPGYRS
T7 sequence (P35968 20-1356): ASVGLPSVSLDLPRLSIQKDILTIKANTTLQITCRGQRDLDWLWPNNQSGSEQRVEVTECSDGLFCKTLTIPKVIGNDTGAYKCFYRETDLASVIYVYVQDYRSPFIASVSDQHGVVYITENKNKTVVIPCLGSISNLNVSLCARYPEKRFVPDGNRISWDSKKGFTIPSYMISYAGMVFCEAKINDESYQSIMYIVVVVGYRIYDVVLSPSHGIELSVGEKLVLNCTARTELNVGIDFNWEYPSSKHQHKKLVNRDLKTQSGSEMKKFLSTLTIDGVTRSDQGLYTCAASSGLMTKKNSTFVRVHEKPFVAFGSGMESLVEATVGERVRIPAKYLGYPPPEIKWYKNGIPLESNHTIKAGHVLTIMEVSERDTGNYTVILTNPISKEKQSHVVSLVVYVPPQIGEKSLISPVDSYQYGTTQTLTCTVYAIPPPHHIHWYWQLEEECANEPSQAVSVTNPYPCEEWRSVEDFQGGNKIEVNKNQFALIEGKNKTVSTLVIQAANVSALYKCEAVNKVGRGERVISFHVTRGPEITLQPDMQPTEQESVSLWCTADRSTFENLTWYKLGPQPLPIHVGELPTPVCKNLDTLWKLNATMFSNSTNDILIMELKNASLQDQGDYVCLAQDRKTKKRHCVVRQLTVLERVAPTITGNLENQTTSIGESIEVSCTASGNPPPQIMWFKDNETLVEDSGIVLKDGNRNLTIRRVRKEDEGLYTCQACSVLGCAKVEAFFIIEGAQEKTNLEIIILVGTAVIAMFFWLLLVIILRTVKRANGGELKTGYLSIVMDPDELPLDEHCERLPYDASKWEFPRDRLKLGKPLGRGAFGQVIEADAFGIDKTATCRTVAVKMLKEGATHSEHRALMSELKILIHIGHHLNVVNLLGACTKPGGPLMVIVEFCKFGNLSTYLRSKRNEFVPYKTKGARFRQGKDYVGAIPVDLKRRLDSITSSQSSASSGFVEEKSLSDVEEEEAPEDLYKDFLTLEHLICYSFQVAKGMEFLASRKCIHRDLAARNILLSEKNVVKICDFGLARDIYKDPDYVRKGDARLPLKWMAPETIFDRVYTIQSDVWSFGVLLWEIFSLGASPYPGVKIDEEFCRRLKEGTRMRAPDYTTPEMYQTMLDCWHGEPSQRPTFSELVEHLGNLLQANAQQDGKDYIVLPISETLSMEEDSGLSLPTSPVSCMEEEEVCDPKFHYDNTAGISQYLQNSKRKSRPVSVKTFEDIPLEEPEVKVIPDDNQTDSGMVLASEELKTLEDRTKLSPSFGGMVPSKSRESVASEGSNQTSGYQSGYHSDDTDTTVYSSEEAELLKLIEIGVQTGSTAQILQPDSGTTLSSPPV
T9 sequence (P50750 whole entry): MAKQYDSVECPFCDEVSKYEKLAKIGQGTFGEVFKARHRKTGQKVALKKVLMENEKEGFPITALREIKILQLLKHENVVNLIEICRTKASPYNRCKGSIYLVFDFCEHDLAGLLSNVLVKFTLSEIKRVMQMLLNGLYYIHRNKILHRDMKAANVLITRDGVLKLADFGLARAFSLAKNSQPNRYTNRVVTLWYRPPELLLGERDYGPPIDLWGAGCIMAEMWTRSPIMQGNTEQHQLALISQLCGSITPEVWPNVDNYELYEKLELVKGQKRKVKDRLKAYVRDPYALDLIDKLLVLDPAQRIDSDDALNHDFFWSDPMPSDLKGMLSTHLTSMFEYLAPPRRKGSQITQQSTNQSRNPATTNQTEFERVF
T9 sequence (O60563 whole entry partner): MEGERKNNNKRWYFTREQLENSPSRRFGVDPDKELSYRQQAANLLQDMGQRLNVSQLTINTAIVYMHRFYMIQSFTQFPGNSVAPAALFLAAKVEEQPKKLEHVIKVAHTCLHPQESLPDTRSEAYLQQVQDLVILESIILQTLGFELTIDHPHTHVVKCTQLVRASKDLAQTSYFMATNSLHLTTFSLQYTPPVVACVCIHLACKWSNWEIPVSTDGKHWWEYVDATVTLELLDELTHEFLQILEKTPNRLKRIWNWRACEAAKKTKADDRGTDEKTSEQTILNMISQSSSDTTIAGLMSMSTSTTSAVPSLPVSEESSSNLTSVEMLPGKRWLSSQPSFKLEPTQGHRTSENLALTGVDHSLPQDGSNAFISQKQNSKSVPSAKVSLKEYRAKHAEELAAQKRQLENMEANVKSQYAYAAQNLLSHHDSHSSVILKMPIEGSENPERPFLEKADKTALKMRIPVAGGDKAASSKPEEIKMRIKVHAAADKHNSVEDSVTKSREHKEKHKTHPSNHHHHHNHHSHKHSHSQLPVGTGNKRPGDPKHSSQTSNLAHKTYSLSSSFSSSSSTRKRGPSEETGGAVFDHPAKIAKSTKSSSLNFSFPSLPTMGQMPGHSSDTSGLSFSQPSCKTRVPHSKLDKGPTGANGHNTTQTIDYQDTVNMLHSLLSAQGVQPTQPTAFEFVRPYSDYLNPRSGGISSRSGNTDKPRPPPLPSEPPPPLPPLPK
T3 sequence (P09769 whole entry): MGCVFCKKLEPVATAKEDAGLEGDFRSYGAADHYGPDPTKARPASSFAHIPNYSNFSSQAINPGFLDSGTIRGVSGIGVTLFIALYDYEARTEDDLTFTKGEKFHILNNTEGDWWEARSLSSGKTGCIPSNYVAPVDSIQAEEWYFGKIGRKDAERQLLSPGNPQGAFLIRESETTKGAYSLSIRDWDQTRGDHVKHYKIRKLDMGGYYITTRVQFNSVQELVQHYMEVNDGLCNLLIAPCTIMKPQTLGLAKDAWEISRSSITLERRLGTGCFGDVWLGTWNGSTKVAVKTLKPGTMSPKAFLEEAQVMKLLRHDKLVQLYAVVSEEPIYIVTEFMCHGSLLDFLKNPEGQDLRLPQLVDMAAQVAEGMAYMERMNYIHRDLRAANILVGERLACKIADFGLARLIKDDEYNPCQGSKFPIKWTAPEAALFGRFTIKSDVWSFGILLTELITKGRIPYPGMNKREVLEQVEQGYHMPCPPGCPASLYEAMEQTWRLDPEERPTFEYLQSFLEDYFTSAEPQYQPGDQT
T8 sequence (Q9Y4K4 whole entry): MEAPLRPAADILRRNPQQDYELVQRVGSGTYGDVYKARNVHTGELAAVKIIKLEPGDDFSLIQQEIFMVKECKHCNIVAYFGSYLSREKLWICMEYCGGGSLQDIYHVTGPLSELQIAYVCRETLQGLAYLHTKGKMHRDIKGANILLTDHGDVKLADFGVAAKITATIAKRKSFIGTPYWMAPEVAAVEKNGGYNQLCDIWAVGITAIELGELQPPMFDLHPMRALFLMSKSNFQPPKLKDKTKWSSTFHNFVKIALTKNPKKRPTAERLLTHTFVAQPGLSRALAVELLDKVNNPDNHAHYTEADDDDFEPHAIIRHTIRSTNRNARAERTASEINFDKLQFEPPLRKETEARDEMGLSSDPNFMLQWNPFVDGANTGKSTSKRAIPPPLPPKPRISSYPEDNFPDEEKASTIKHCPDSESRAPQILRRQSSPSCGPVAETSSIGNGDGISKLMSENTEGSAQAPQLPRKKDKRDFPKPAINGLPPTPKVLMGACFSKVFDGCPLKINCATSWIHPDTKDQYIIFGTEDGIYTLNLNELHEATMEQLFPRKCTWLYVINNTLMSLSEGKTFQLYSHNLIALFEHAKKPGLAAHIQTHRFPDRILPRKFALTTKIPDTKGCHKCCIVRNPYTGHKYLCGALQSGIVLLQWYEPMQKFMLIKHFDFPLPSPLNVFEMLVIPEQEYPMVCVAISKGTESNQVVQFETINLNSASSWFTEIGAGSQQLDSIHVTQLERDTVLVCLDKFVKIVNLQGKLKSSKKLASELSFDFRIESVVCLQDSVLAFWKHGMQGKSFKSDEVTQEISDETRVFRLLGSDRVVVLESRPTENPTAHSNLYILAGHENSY

SMILES: C=CC(=O)Nc1cccc(Nc2nc(Nc3ccc(OCCOC)c(F)c3)ncc2F)c1 [Compound 2]
- inhibition at 3 µM [1]: -6.62%
- remaining activity at 3 µM [1, 10]: 108%
- remaining activity at 3 µM [1, 11]: 105%
- inhibition at 3 µM [2]: 21.8%
- remaining activity at 3 µM [2, 10]: 78.3%
- remaining activity at 3 µM [2, 11]: 78.2%
- inhibition at 3 µM [3]: 59.9%
- remaining activity at 3 µM [3, 10]: 39.7%
- remaining activity at 3 µM [3, 11]: 40.5%
- inhibition at 3 µM [4]: -4.25%
- remaining activity at 3 µM [4, 10]: 106%
- remaining activity at 3 µM [4, 11]: 103%
- inhibition at 3 µM [5]: -5.74%
- remaining activity at 3 µM [5, 10]: 102%
- remaining activity at 3 µM [5, 11]: 109%
- inhibition at 3 µM [6]: -0.03%
- remaining activity at 3 µM [6, 10]: 99.9%
- remaining activity at 3 µM [6, 11]: 100%
- inhibition at 3 µM [7]: 17.7%
- remaining activity at 3 µM [7, 10]: 83.3%
- remaining activity at 3 µM [7, 11]: 81.2%
- inhibition at 3 µM [8]: 7.15%
- remaining activity at 3 µM [8, 10]: 94.9%
- remaining activity at 3 µM [8, 11]: 90.8%
- inhibition at 3 µM [9]: 10.3%
- remaining activity at 3 µM [9, 10]: 87.8%
- remaining activity at 3 µM [9, 11]: 91.5%

Source: patent publication US9492471B2, “Methods of treating a disease or disorder associated with Bruton'S Tyrosine Kinase” (Celgene Avilomics Research, Inc., priority 2013, dated 2016)
